According to patent publication US20260130864A1, “METHOD AND COMPOSITION FOR ENHANCING EXERCISE PERFORMANCE” (NANJING NUTRABUILDING BIO-TECH CO., LTD., priority 2023, published 2026):

What was measured:
Type in all cases: in vivo
dopamine = dopamine content in the brain of mice (ELISA); conditions: 4 weeks; for dopamine content in the brain: control 3,293 ng/g brain
Experimental: (§1) Twenty-four pure Swiss male mice were randomly divided into three groups, with 8 mice in each group, and were given food and water freely under the light and dark cycle of 12:12 hours. The first group was the control group (group 1, no DHZ), the second group was given by gavage 50 mg/kg DHZ (group 2), and the third group was given by gavage 100 mg/kg DHZ (group 3). DHZ solution was prepared with 5% DMSO, 25% PEG-400, 30% propylene glycol and 40% normal saline. All the mice were administered at a dose of 10 mL/kg body weight for 4 weeks. 4 weeks later, these mice were made to run on treadmill voluntarily for exercise analysis, and the running distance of each of mice when exhausted was recorded. All the mice were untrained before exercise. Each group was perfused with paraformaldehyde, and brain tissue was frozen in liquid nitrogen for ELISA, and then dopamine was detected. The cecal feces of mice were collected and the flora was sequenced by 16s. The proportion of different bacteria in feces was obtained, and the DNA in feces was extracted to detect the copy number of Eubacterium rectale and Coprococcus eutactus. The statistical analysis of data was conducted by unpaired t-test, and * indicates significant difference. Compared with the control group, * means p<0.05; ** means p<0.01; *** means p<0.001; **** means p<0.0001.

[1] = treadmill exercise endurance of mice after 4 weeks administration; conditions: for running distance on treadmill when exhausted (exercise endurance): Swiss male mice, control 948 m
Experimental: as §1

Eubacterium rectale = test: bacterial copy number of Eubacterium rectale in cecal feces of mice; conditions: after 4 weeks of DHZ administration
Experimental: as §1, with “p<0.0001. […]” for “p<0.0001.”

Coprococcus eutactus = test: bacterial copy number of Coprococcus eutactus in cecal feces of mice; conditions: after 4 weeks of DHZ administration
Experimental: as §1, with “p<0.0001. […]” for “p<0.0001.”

[2] = high dose group (100 mg/kg by gavage)

With `COc1cc(/C=C/C(C)=O)ccc1O` [DHZ, Dehydrozingerone] the “brain dopamine level, times higher than in the control group” value (dopamine; [2]) was 5 times, the “dopamine content in the brain” value (dopamine; [2]) was 19,988 ng/g brain and the “dopamine content in the brain” value (dopamine; low dose group (50 mg/kg by gavage)) was 16,285 ng/g brain. For the same molecule, the “running distance on treadmill when exhausted (exercise endurance)” value ([1]; 50 mg/kg DHZ by gavage (low-dose group)) was 1112 m, the “running distance on treadmill when exhausted (exercise endurance)” value ([1]; 100 mg/kg DHZ by gavage (high-dose group)) was 1367 m and the “exercise performance higher than that of control group” value ([1]; high-dose group (100 mg/kg by gavage)) was 44%. For the same molecule, the “increase of number (copy number) of Eubacterium rectale compared with the control group” value (Eubacterium rectale) was “about 3 times” and the “increase of number (copy number) of Coprococcus eutactus compared with the control group” value (Coprococcus eutactus) was “about 3 times”.
